# From PMC6308944, “Anti-Candida albicans Activity of Thiazolylhydrazone Derivatives in Invertebrate and Murine Models” (Journal of Fungi, 2018)
# Assays:
# C. neoformans (H99) = test: MIC, broth microdilution (CLSI M27-A3), reference isolate; details: Cryptococcus neoformans
# C. dublinensis (MYA-646) = test: as above; details: Candida dubliniensis
# C. glabrata (ATCC90030) = test: as above; details: Nakaseomyces glabratus
# [1] = system: Candida albicans clinical isolates; test: MIC, broth microdilution, clinical isolates
# [2] = system: Cryptococcus neoformans clinical isolates; test: MIC, broth microdilution, clinical isolates
# C. krusei (ATCC6258) = test: MIC, broth microdilution (CLSI M27-A3), reference isolate; details: Pichia kudriavzevii
# [3] = system: Candida glabrata clinical isolates; test: MIC, broth microdilution, clinical isolates
# C. albicans (CAN14) = test: MIC, broth microdilution (CLSI M27-A3), reference isolate; details: Candida albicans
# [4] = system: C. parapsilosis (ATCC22019); test: as above; details: Lodderomyces parapsilosis
# [5] = system: Candida parapsilosis isolates; test: MIC, broth microdilution, clinical isolates
# [6] = system: C. tropicalis (ATCC13803); test: MIC, broth microdilution (CLSI M27-A3), reference isolate; details: Candida tropicalis
# C. albicans (DAY-185) = test: as above; details: Candida albicans, 48 h
compound,measurement,setting,value
C[C@@H]1[C@H](O)[C@@H](C)/C=C/C=C/C=C/C=C/C=C/C=C/C=C/[C@H](O[C@@H]2O[C@H](C)[C@@H](O)[C@H](N)[C@@H]2O)C[C@@H]2O[C@](O)(C[C@@H](O)C[C@@H](O)[C@H](O)CC[C@@H](O)C[C@@H](O)CC(=O)O[C@H]1C)C[C@H](O)[C@H]2C(=O)O [Amphotericin B],MIC,C. neoformans (H99),4 µg/mL
same,MIC,C. dublinensis (MYA-646),1 µg/mL
same,MIC,C. glabrata (ATCC90030),2 µg/mL
same,MIC50,[1]; Candida albicans,0.25 µg/mL
same,MIC90,[1]; Candida albicans,0.25 µg/mL
same,MIC,"[1]; Candida albicans, C. albicans clinical isolate 1",0.25 µg/mL
same,MIC,"[1]; Candida albicans, C. albicans clinical isolate 02A",0.25 µg/mL
same,MIC,"[1]; Candida albicans, C. albicans clinical isolate 02B",0.25 µg/mL
same,MIC,"[1]; Candida albicans, C. albicans clinical isolate 6",0.5 µg/mL
same,MIC,"[1]; Candida albicans, C. albicans clinical isolate 7",0.125 µg/mL
same,MIC,"[1]; Candida albicans, C. albicans clinical isolate 9",0.25 µg/mL
same,MIC,"[1]; Candida albicans, C. albicans clinical isolate 10",0.25 µg/mL
same,MIC,"[1]; Candida albicans, C. albicans clinical isolate 11",0.125 µg/mL
same,MIC,"[1]; Candida albicans, C. albicans clinical isolate 13",0.125 µg/mL
same,MIC90,[1]; nine C. albicans clinical isolates,0.25 µg/mL
same,MIC50,[2],0.125 µg/mL
same,MIC90,[2],0.25 µg/mL
same,MIC,[2]; C. neoformans clinical isolate 27JF,0.25 µg/mL
same,MIC,[2]; C. neoformans clinical isolate 28JF,0.125 µg/mL
same,MIC,[2]; C. neoformans clinical isolate 93,0.25 µg/mL
same,MIC,[2]; C. neoformans clinical isolate 94,0.25 µg/mL
same,MIC,[2]; C. neoformans clinical isolate 646B,0.125 µg/mL
same,MIC,[2]; C. neoformans clinical isolate 975,0.125 µg/mL
same,MIC,[2]; C. neoformans clinical isolate 9220,0.125 µg/mL
same,MIC,[2]; C. neoformans clinical isolate 9273,0.125 µg/mL
same,MIC,[2]; C. neoformans clinical isolate 10131,0.125 µg/mL
same,MIC,[2]; C. neoformans clinical isolate 10211,0.125 µg/mL
same,MIC,[2]; C. neoformans clinical isolate 10264,0.125 µg/mL
same,MIC,[2]; C. neoformans clinical isolate 10335,0.125 µg/mL
same,MIC,[2]; C. neoformans clinical isolate 10379,0.125 µg/mL
same,MIC,[2]; C. neoformans clinical isolate 41292,0.125 µg/mL
same,MIC,[2]; C. neoformans clinical isolate 41295,0.125 µg/mL
same,MIC,[2]; C. neoformans clinical isolate 41296,1 µg/mL
same,MIC,[2]; C. neoformans clinical isolate 41297,0.125 µg/mL
same,MIC,[2]; C. neoformans clinical isolate 41298,0.125 µg/mL
same,MIC,[2]; C. neoformans clinical isolate 41299,0.125 µg/mL
same,MIC,[2]; C. neoformans clinical isolate 90896,0.125 µg/mL
same,MIC,[2]; C. neoformans clinical isolate 92868,0.25 µg/mL
same,MIC,[2]; C. neoformans clinical isolate BF113,1 µg/mL
same,MIC,[2]; C. neoformans clinical isolate BF114,< 0.0625 µg/mL
same,MIC,[2]; C. neoformans clinical isolate C31,0.125 µg/mL
same,MIC,[2]; C. neoformans clinical isolate F10,0.25 µg/mL
same,MIC,[2]; C. neoformans clinical isolate RN01,0.125 µg/mL
same,MIC,[2]; C. neoformans clinical isolate WP,1 µg/mL
same,MIC,C. krusei (ATCC6258),8 µg/mL
same,MIC50,[3]; Nakaseomyces glabratus,0.5 µg/mL
same,MIC90,[3]; Nakaseomyces glabratus,1 µg/mL
same,MIC,"[3]; Nakaseomyces glabratus, C. glabrata clinical isolate 6922",0.5 µg/mL
same,MIC,"[3]; Nakaseomyces glabratus, C. glabrata clinical isolate 6927",1 µg/mL
same,MIC,"[3]; Nakaseomyces glabratus, C. glabrata clinical isolate 6931",0.5 µg/mL
same,MIC,"[3]; Nakaseomyces glabratus, C. glabrata clinical isolate 6932",0.5 µg/mL
same,MIC,"[3]; Nakaseomyces glabratus, C. glabrata clinical isolate 6943",1 µg/mL
same,MIC,"[3]; Nakaseomyces glabratus, C. glabrata clinical isolate 7110",0.5 µg/mL
same,MIC,"[3]; Nakaseomyces glabratus, C. glabrata clinical isolate 7221",0.5 µg/mL
same,MIC,"[3]; Nakaseomyces glabratus, C. glabrata clinical isolate 7255",1 µg/mL
same,MIC,"[3]; Nakaseomyces glabratus, C. glabrata clinical isolate 7815",0.5 µg/mL
same,MIC,"[3]; Nakaseomyces glabratus, C. glabrata clinical isolate 7871",1 µg/mL
same,susceptibility of isolates according to CLSI M27-S4,[3]; all C. glabrata clinical isolates,sensitive
same,MIC,C. albicans (CAN14),1 µg/mL
same,MIC,[4],2 µg/mL
same,MIC90,[5]; C. parapsilosis isolates,0.5 µg/mL
same,MIC50,[5]; Lodderomyces parapsilosis,0.25 µg/mL
same,MIC90,[5]; Lodderomyces parapsilosis,0.5 µg/mL
same,MIC,"[5]; Lodderomyces parapsilosis, C. parapsilosis isolate 6901",0.5 µg/mL
same,MIC,"[5]; Lodderomyces parapsilosis, C. parapsilosis isolate 6917",0.25 µg/mL
same,MIC,"[5]; Lodderomyces parapsilosis, C. parapsilosis isolate 6933",0.5 µg/mL
same,MIC,"[5]; Lodderomyces parapsilosis, C. parapsilosis isolate 7449",0.5 µg/mL
same,MIC,"[5]; Lodderomyces parapsilosis, C. parapsilosis isolate 7585",0.25 µg/mL
same,MIC,"[5]; Lodderomyces parapsilosis, C. parapsilosis isolate 7652",0.25 µg/mL
same,MIC,"[5]; Lodderomyces parapsilosis, C. parapsilosis isolate 7839",0.5 µg/mL
same,MIC,"[5]; Lodderomyces parapsilosis, C. parapsilosis isolate 7970A",0.25 µg/mL
same,MIC,"[5]; Lodderomyces parapsilosis, C. parapsilosis isolate 8044",0.5 µg/mL
same,MIC,"[5]; Lodderomyces parapsilosis, C. parapsilosis isolate 8662",0.25 µg/mL
same,MIC,[6],4 µg/mL
same,MIC,C. albicans (DAY-185),1 µg/mL
